# Source: patent US20150344457A1, “METHODS OF INHIBITING PRMT5” (EPIZYME, INC., priority 2012, published 2015)
# Where two headings read alike, the source gives them in different places.
# Columns and labels:
# PRMT5/MEP50 = target: T1, PRMT5/MEP50 (Homo sapiens, UniProt O14744); assay: PRMT5 Biochemical Assay (PRMT5/MEP50 enzyme assay on peptide substrate, 3H-SAM Flashplate); conditions: read-out: Biochemical IC50
# T1 construct: Expressed full-length human Flag-PRMT5/6His-MeP50 protein complex was purified; made in house; host or cells: Spodoptera frugiperda (SF9) insect cells, baculovirus (pDEST8)
# Z-138 cells [1] = assay: Z-138 Methylation Assay (In Cell Western for symmetric di-methyl arginine and DNA content); format: cell-based; conditions: Homo sapiens
# Source text: Z-138 suspension cells were purchased from ATCC (American Type Culture Collection, Manassas, Va.). RPMI/Glutamax medium, penicillin-streptomycin, heat inactivated fetal bovine serum, and D-PBS were purchased from Life Technologies, Grand Island, N.Y., USA. Odyssey blocking buffer, 800CW goat anti-rabbit IgG (H+L) antibody, and Licor Odyssey infrared scanner were purchased from Licor Biosciences, Lincoln, Nebr., USA. Symmetric di-methyl arginine antibody was purchased from EMD Millipore, Billerica, Mass., USA. 16% Paraformaldehyde was purchased from Electron Microscopy Sciences, Hatfield, Pa., USA.
# Z-138 suspension cells were maintained in growth medium (RPMI 1640 supplemented with 10% v/v heat inactivated fetal bovine serum and 100 units/mL penicillin-streptomycin) and cultured at 37° C. under 5% CO2.
# Cell Treatment, in Cell Western (ICW) for Detection of Symmetric Di-Methyl Arginine and DNA Content.
# Z-138 cells were seeded in assay medium at a concentration of 50,000 cells per mL to a 384-well cell culture plate with 50 μL per well. Compound (100 nL) from 384 well source plates was added directly to 384 well cell plate. Plates were incubated at 37° C., 5% CO2 for 96 hours. After four days of incubation, 40 μL of cells from incubated plates were added to poly-D-lysine coated 384 well culture plates (BD Biosciences 356697). Plates were incubated at room temperature for 30 minutes then incubated at 37° C., 5% CO2 for 5 hours. After the incubation, 40 μL per well of 8% paraformaldehyde in PBS (16% paraformaldahyde was diluted to 8% in PBS) was added to each plate and incubated for 30 minutes. Plates were transferred to a Biotek 405 plate washer and washed 5 times with 100 μL per well of wash buffer (1×PBS with 0.1% Triton X-100 (v/v)). Next 30 μL per well of Odyssey blocking buffer were added to each plate and incubated 1 hour at room temperature. Blocking buffer was removed and 20 μL per well of primary antibody was added (symmetric di-methyl arginine diluted 1:100 in Odyssey buffer with 0.1% Tween 20 (v/v)) and plates were incubated overnight (16 hours) at 4° C. Plates were washed 5 times with 100 μL per well of wash buffer. Next 20 μL per well of secondary antibody was added (1:200 800CW goat anti-rabbit IgG (H+L) antibody, 1:1000 DRAQS (Biostatus limited) in Odyssey buffer with 0.1% Tween 20 (v/v)) and incubated for 1 hour at room temperature. The plates were washed 5 times with 100 μL per well wash buffer then 1 time with 100 μL per well of water. Plates were allowed to dry at room temperature then imaged on the Licor Odyssey machine which measures integrated intensity at 700 nm and 800 nm wavelengths. Both 700 and 800 channels were scanned.
# First, the ratio for each well was determined by:
# Each plate included fourteen control wells of DMSO only treatment (minimum inhibition) as well as fourteen control wells for maximum inhibition treated with 3 μM of a reference compound (Background wells). The average of the ratio values for each control type was calculated and used to determine the percent inhibition for each test well in the plate. Reference compound was serially diluted three-fold in DMSO for a total of nine test concentrations, beginning at 3 μM. Percent inhibition was determined and IC50 curves were generated using triplicate wells per concentration of compound.
# Z-138 cells [2] = assay: Z-138 Proliferation Assay (Cell Titer Glo, 5 days); format: cell-based; conditions: Homo sapiens
# Source text: Z-138 Proliferation Assay
# Z-138 suspension cells were purchased from ATCC (American Type Culture Collection, Manassas, Va.). RPMI/Glutamax medium, penicillin-streptomycin, heat inactivated fetal bovine serum were purchased from Life Technologies, Grand Island, N.Y., USA. V-bottom polypropylene 384-well plates were purchased from Greiner Bio-One, Monroe, N.C., USA. Cell culture 384-well white opaque plates were purchased from Perkin Elmer, Waltham, Mass., USA. Cell-Titer Gb® was purchased from Promega Corporation, Madison, Wis., USA. SpectraMax M5 plate reader was purchased from Molecular Devices LLC, Sunnyvale, Calif., USA.
# Z-138 suspension cells were maintained in growth medium (RPMI 1640 supplemented with 10% v/v heat inactivated fetal bovine serum and cultured at 37° C. under 5% CO2. Under assay conditions, cells were incubated in assay medium (RPMI 1640 supplemented with 10% v/v heat inactivated fetal bovine serum and 100 units/mL penicillin-streptomycin) at 37° C. under 5% CO2.
# For the assessment of the effect of compounds on the proliferation of the Z-138 cell line, exponentially growing cells were plated in 384-well white opaque plates at a density of 10,000 cells/ml in a final volume of 50 μl of assay medium. A compound source plate was prepared by performing triplicate nine-point 3-fold serial dilutions in DMSO, beginning at 10 mM (final top concentration of compound in the assay was 20 μM and the DMSO was 0.2%). A 100 nL aliquot from the compound stock plate was added to its respective well in the cell plate. […] After addition of compounds, assay plates were incubated for 5 days at 37° C., 5% CO2, relative humidity >90%.
# Cell viability was measured by quantitation of ATP present in the cell cultures, adding 35 μl of Cell Titer Glo® reagent to the cell plates. Luminescence was read in the SpectraMax M5 microplate reader. The concentration of compound inhibiting cell viability by 50% was determined using a 4-parametric fit of the normalized dose response curves.
# [3] = Table A-2, PRMT5/MEP50 4 nM, 3H-SAM 75 nM, peptide 40 nM
# [4] = Table A-2, 96 hours, symmetric di-methyl arginine, read-out: ICW EC50
# T1 sequence (O14744 with tags, fused parts or gaps): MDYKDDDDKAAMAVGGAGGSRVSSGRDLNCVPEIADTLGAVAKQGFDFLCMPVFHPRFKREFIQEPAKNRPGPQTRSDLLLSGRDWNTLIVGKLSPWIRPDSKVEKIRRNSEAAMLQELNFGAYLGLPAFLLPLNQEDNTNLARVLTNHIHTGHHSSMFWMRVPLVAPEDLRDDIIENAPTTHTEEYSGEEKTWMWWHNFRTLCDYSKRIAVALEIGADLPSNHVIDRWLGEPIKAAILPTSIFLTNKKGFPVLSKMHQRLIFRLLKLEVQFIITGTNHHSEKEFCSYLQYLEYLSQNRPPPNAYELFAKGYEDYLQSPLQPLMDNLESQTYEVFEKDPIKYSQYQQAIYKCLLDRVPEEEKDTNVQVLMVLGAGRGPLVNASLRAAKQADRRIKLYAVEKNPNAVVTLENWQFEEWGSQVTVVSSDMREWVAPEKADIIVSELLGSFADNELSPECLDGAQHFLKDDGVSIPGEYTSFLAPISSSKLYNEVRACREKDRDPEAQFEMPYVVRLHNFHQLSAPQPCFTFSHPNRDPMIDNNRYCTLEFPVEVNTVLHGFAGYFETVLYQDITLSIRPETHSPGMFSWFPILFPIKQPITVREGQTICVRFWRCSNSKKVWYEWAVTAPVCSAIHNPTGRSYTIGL
# T1 sequence (Q9BQA1 with tags, fused parts or gaps partner limits assumed): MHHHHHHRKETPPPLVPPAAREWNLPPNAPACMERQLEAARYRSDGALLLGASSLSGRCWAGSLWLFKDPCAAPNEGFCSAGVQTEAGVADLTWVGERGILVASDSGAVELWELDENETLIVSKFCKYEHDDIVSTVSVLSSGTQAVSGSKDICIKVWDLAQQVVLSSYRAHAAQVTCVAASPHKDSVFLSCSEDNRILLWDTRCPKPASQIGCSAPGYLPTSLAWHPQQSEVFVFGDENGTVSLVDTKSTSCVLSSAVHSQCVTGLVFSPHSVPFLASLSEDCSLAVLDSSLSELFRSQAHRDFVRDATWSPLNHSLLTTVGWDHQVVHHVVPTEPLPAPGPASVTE
IC50 (PRMT5/MEP50; Table D-2) [µM],Structure (SMILES),EC50 (Z-138 cells [2]; Table D-2) [µM],also measured
> 40,CN1CCC(OCC(O)CN2CCc3ccccc3C2)CC1 (stereo not shown) [Compound D293],> 40,–
1 to 10,OC(COCC1CCCCC1)CN1CCc2ccccc2C1 (stereo not shown) [Compound D294],> 40,–
> 40,CCn1ccnc1COCC(O)CN1CCc2ccccc2C1 (stereo not shown) [Compound D295],> 40,–
> 40,OC(COC1CCCNC1)CN1CCc2ccccc2C1 (stereo not shown) [Compound D297],> 40,–
> 40,OC(COC1CCNCC1)CN1CCc2ccccc2C1 (stereo not shown) [Compound D298],> 40,–
10 to 40,CC(OCC(O)CN1CCc2ccccc2C1)c1cccnc1 (stereo not shown) [Compound D299],> 40,–
0.101 to 1,OC(COCC1COc2ccccc2O1)CN1CCc2ccccc2C1 (stereo not shown) [Compound D300],> 40,–
1 to 10,OC(COC1Cc2ccccc2C1)CN1CCc2ccccc2C1 (stereo not shown) [Compound D301],> 40,–
1 to 10,OC(COCC1CC1)CN1CCc2ccccc2C1 (stereo not shown) [Compound D303],> 40,–
> 40,OC(COCC1CCCCO1)CN1CCc2ccccc2C1 (stereo not shown) [Compound D304],> 40,–
10 to 40,OC(COCC1CCCO1)CN1CCc2ccccc2C1 (stereo not shown) [Compound D305],> 40,–
> 40,OC(COC1CCNC1)CN1CCc2ccccc2C1 (stereo not shown) [Compound D306],> 40,–
> 40,CN1CCC(OCC(O)CN2CCc3ccccc3C2)C1 (stereo not shown) [Compound D307],> 40,–
10 to 40,OC(COCc1ccccc1)CN1CCc2ccccc2C1 (stereo not shown) [Compound D308],> 40,–
1 to 10,OC(COC1CCCCCC1)CN1CCc2ccccc2C1 (stereo not shown) [Compound D309],> 40,–
10 to 40,OC(COC1CCOCC1)CN1CCc2ccccc2C1 (stereo not shown) [Compound D310],> 40,–

# The remaining lines, values behind:
Structure (SMILES),IC50 (PRMT5/MEP50; Table D-2) [µM],EC50 (Z-138 cells [2]; Table D-2) [µM],also measured
O=C(COc1ccccc1)NCC(O)CN1CCc2ccccc2C1 (stereo not shown) [Compound A1],–,–,IC50 (PRMT5/MEP50; [3]): 0.101 to 1 µM; EC50 (Z-138 cells [1]; [4]): 0.101 to 1 µM
Cn1cnc2ccc(OCC(=O)NCC(O)CN3CCc4ccccc4C3)cc21 (stereo not shown) [Compound A30],–,–,"EC50 (Z-138 cells [2]; 120 h, Table A-2, 5 days, top concentration 20 μM): 10 to 50 µM; EC50 (Z-138 cells [1]; [4]): 0.101 to 1 µM"
Cn1nccc1-c1cccc(CC(=O)NCC(O)CN2CCc3ccccc3C2)c1 (stereo not shown) [Compound A54],–,–,IC50 (PRMT5/MEP50; [3]): 0.101 to 1 µM; EC50 (Z-138 cells [1]; [4]): 0.101 to 1 µM
O=C(Cc1cccc2cccnc12)NCC(O)CN1CCc2ccccc2C1 (stereo not shown) [Compound A60],–,–,IC50 (PRMT5/MEP50; [3]): 0.101 to 1 µM; EC50 (Z-138 cells [1]; [4]): 1 to 10 µM
Cn1cnc2ccc(NCC(=O)NCC(O)CN3CCc4ccccc4C3)cc21 (stereo not shown) [Compound A69],–,–,IC50 (PRMT5/MEP50; [3]): 0.101 to 1 µM; EC50 (Z-138 cells [1]; [4]): 1 to 10 µM
O=C(COc1ccccc1N1CCOCC1)NC[C@@H](O)CN1CCc2ccccc2C1 [Compound A78],–,–,IC50 (PRMT5/MEP50; [3]): 0.101 to 1 µM; EC50 (Z-138 cells [1]; [4]): 0.101 to 1 µM
CN1CCN(c2ccccc2OCC(=O)NC[C@@H](O)CN2CCc3ccccc3C2)CC1 [Compound A85],–,–,IC50 (PRMT5/MEP50; [3]): 1 to 10 µM; EC50 (Z-138 cells [1]; [4]): 1 to 10 µM
CN(C)CCOc1ccccc1OCC(=O)NC[C@@H](O)CN1CCc2ccccc2C1 [Compound A89],–,–,IC50 (PRMT5/MEP50; [3]): 0.101 to 1 µM; EC50 (Z-138 cells [1]; [4]): 1 to 10 µM
Cn1ccnc1-c1ccccc1OCC(=O)NCC(O)CN1CCc2ccccc2C1 (stereo not shown) [Compound A138],–,–,IC50 (PRMT5/MEP50; [3]): 0.101 to 1 µM; EC50 (Z-138 cells [1]; [4]): 1 to 10 µM
Cc1cn(C)c2cccc(OCC(=O)NCC(O)CN3CCc4ccccc4C3)c12 (stereo not shown) [Compound A146],–,–,IC50 (PRMT5/MEP50; [3]): < 0.1 µM; EC50 (Z-138 cells [1]; [4]): 0.101 to 1 µM
O=C(COc1ccccc1S(=O)(=O)N1CCOCC1)NCC(O)CN1CCc2ccccc2C1 (stereo not shown) [Compound A149],–,–,IC50 (PRMT5/MEP50; [3]): < 0.1 µM; EC50 (Z-138 cells [1]; [4]): 0.101 to 1 µM
COc1cc(Cl)cc(-c2cccc(OCC(O)CN3CCc4ccccc4C3)c2)c1 (stereo not shown) [Compound D110],0.101 to 1,–,"EC50 (Z-138 cells [1]; Table D-2, read-out: ICW EC50): > 20 µM"
N#CCc1cccc(-c2cccc(OCC(O)CN3CCc4ccccc4C3)c2)c1 (stereo not shown) [Compound D111],0.101 to 1,–,"EC50 (Z-138 cells [1]; Table D-2, read-out: ICW EC50): 1 to 10 µM"
Cn1cc2ccc(-c3cccc(OCC(O)CN4CCc5ccccc5C4)c3)cc2n1 (stereo not shown) [Compound D114],0.101 to 1,–,"EC50 (Z-138 cells [1]; Table D-2, read-out: ICW EC50): > 20 µM"
OC(COc1cccc(-c2ccccc2F)c1)CN1CCc2ccccc2C1 (stereo not shown) [Compound D154],0.101 to 1,–,"EC50 (Z-138 cells [1]; Table D-2, read-out: ICW EC50): 1 to 10 µM"
O=C(Nc1cccc(OCC(O)CN2CCc3ccccc3C2)c1)c1cccnn1 (stereo not shown) [Compound D164],1 to 10,–,"EC50 (Z-138 cells [1]; Table D-2, read-out: ICW EC50): 1 to 10 µM"
Cn1cnc2ccc(-c3cccc(OC[C@@H](O)CN4CCc5ccccc5C4)c3)cc21 [Compound D173],–,1 to 10,"EC50 (Z-138 cells [1]; Table D-2, read-out: ICW EC50): 1 to 10 µM"
O[C@H](COc1cccc(-c2cccc3cccnc23)c1)CN1CCc2ccccc2C1 [Compound D258],–,> 20,"EC50 (Z-138 cells [1]; Table D-2, read-out: ICW EC50): 1 to 10 µM"
Cn1cncc1C(=O)Nc1cccc(OC[C@H](O)CN2CCc3ccccc3C2)c1 [Compound D259],–,10 to 40,"EC50 (Z-138 cells [1]; Table D-2, read-out: ICW EC50): 0.101 to 1 µM"
Cn1cnc2ccc(-c3ccnc(NC[C@@H](O)CN4CCc5ccccc5C4)c3)cc21 [Compound D276],–,1 to 10,"EC50 (Z-138 cells [1]; Table D-2, read-out: ICW EC50): 1 to 10 µM"
CN1CCCCC1COCC(O)CN1CCc2ccccc2C1 (stereo not shown) [Compound D289],> 40,> 40,–
CC(C)(C)OC(=O)N1CC(OCC(O)CN2CCc3ccccc3C2)C1 (stereo not shown) [Compound D290],1 to 10,> 40,–
CC(C)(C)OC(=O)N1CCCC(OCC(O)CN2CCc3ccccc3C2)C1 (stereo not shown) [Compound D291],1 to 10,> 40,–
CC(C)(C)OC(=O)N1CCC(OCC(O)CN2CCc3ccccc3C2)CC1 (stereo not shown) [Compound D292],1 to 10,> 40,–
O=C(NCC(O)CN1Cc2ccccc2C1)c1cccc(NC2CCOCC2)c1 (stereo not shown) [Compound E8.],–,–,"IC50 (PRMT5/MEP50; Table E-2): 0.101 to 1 µM; EC50 (Z-138 cells [1]; Table E-2, read-out: ICW EC50): 0.101 to 1 µM"
